Measurements as given in ChEMBL document CHEMBL1139227, “Discovery of a series of 6,7-dimethoxy-4-pyrrolidylquinazoline PDE10A inhibitors” (J Med Chem, 2007).
Calls of active or inactive are those of the source. The calls are words filed in the database; no cut-off is given here.

Assays:
[1] = Inhibition of rat recombinant PDE10A transfected in Sf9 cells by SPA
[2] = target: cGMP-inhibited 3',5'-cyclic phosphodiesterase 3A (Homo sapiens, UniProt Q14432); experiment: Inhibition of human recombinant PDE3A transfected in Sf9 cells by SPA
[3] = target: cGMP-inhibited 3',5'-cyclic phosphodiesterase 3B (Homo sapiens, UniProt Q13370); experiment: Inhibition of human recombinant PDE3B transfected in Sf9 cells by SPA
[4] = tested on: Mus musculus; experiment: Increase of phosphorylated CREB level in CD1 mice striatal tissue at 32 mg/kg, sc after 90 mins; format: functional, organism-based; design: dose 32 mg/kg; details: Striatum
[5] = tested on: Mus musculus; experiment: Increase of cGMP level in CD1 mouse striatal tissue at 10 mg/kg, sc; format: functional, organism-based; design: dose 10 mg/kg; details: Striatum
[6] = tested on: Mus musculus; experiment: Increase of cGMP level in CD1 mouse striatal tissue at 32 mg/kg, sc; format: functional, organism-based; design: dose 32 mg/kg; details: Striatum
[7] = tested on: Mus musculus; experiment: Increase of phosphorylated CREB level in CD1 mice striatal tissue at 32 mg/kg, sc after 30 mins; format: functional, organism-based; design: dose 32 mg/kg; details: Striatum

cGMP-inhibited 3',5'-cyclic phosphodiesterase 3A, sequence (Q14432 whole entry): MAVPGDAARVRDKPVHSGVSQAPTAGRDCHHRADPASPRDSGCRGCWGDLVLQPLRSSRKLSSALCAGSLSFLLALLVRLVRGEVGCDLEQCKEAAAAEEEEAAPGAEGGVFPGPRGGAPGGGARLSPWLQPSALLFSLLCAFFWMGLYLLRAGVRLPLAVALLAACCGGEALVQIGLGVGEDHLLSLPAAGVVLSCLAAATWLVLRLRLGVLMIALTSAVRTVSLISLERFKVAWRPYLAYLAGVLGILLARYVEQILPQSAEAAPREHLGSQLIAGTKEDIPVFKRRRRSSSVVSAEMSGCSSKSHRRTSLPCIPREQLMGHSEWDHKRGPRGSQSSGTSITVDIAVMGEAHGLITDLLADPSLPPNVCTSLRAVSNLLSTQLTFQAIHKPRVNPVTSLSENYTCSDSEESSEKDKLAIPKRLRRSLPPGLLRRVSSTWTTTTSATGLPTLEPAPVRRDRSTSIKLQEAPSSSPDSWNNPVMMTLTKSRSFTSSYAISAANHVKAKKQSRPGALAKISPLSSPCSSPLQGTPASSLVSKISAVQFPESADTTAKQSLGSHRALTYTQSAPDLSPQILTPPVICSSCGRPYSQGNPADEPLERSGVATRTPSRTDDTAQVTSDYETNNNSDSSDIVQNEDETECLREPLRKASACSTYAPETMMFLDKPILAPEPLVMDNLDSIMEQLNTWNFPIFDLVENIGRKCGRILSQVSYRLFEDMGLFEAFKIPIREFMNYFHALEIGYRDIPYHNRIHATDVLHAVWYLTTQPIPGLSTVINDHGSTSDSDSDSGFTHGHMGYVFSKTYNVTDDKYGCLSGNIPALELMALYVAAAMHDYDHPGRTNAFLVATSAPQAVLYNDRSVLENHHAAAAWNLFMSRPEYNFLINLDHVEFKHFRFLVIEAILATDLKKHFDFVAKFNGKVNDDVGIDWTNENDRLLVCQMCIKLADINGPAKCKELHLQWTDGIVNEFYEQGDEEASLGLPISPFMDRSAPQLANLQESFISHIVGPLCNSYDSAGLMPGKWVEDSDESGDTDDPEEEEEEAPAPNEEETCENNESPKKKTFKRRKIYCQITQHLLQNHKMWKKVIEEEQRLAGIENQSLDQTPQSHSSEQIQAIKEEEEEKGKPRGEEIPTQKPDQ
cGMP-inhibited 3',5'-cyclic phosphodiesterase 3B, sequence (Q13370 whole entry): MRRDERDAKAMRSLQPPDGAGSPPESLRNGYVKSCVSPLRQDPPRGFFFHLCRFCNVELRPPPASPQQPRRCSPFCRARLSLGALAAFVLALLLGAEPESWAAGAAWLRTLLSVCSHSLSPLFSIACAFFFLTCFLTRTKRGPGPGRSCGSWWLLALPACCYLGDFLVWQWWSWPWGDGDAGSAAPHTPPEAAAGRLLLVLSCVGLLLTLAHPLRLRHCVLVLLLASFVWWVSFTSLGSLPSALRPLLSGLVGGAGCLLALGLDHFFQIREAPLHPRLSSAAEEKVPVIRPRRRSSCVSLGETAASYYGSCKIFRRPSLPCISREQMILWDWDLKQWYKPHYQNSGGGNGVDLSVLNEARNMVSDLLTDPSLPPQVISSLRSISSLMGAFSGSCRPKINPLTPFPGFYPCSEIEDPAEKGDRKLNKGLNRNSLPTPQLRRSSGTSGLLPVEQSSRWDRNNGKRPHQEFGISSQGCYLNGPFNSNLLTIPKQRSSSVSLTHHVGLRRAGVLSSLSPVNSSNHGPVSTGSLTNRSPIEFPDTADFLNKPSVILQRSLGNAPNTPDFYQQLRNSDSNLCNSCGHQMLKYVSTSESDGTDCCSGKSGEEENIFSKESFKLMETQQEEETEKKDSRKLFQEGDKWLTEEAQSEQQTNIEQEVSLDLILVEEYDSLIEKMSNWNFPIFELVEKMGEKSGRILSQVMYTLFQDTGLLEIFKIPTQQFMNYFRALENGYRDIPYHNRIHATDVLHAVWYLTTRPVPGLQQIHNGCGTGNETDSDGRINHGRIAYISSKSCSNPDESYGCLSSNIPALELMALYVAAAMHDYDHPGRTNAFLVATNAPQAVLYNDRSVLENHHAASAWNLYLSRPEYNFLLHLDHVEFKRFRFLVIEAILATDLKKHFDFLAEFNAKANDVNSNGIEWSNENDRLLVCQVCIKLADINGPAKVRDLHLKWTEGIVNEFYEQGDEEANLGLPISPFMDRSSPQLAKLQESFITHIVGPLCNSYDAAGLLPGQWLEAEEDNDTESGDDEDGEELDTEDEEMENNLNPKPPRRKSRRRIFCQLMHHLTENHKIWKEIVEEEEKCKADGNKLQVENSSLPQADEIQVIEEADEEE

Row | Compound | Ki [2] [nM] | Ki [3] [nM] | IC50 [1] [nM] | Ki [1] [nM] | Activity [4] | Activity [5] | Activity [6] | Activity [7]
1 | COc1cc2ncnc(N3CC[C@@H](Oc4ccc(C(C)(C)C)cc4)C3)c2cc1OC | 720 | 1890 | – | 100 | – | – | – | –
2 | COc1cc2ncnc(N3CC[C@@H](Oc4cnc5ccccc5n4)C3)c2cc1OC | 211 | 273 | 6 | – | Active | Active | Active | Active
3 | COc1cc2ncnc(N3CC[C@@H](Oc4ccc(OC(F)(F)F)cc4)C3)c2cc1OC | 739 | 1820 | – | 185 | – | – | – | –
4 | COc1ccc2cc(O[C@@H]3CCN(c4ncnc5cc(OC)c(OC)cc45)C3)ccc2c1 | 199 | 280 | – | 18 | – | – | – | –
5 | COc1cc2ncnc(N3CC[C@@H](Oc4ccc5ccccc5c4)C3)c2cc1OC | 283 | 463 | 14 | – | – | – | – | –
6 | COc1cc2ncnc(N3CC[C@@H](Oc4ccc5cccnc5c4)C3)c2cc1OC | 209 | 240 | – | 12 | – | – | – | –
7 | COc1ccc2ccc(O[C@@H]3CCN(c4ncnc5cc(OC)c(OC)cc45)C3)cc2c1 | 273 | 305 | – | 17 | – | – | – | –
8 | COc1cc2ncnc(N3CC[C@@H](Oc4ccc(C#N)cc4)C3)c2cc1OC | 214 | 471 | – | – | – | – | – | –
9 | COc1cc2ncnc(N3CCc4ccc(S(=O)(=O)N5CCN(C)CC5)cc4C3)c2cc1OC | – | – | – | 25 | – | – | – | –
10 | COc1cc2ncnc(N3CC[C@@H](Oc4cccnc4)C3)c2cc1OC | 302 | 748 | – | 128 | – | – | – | –
11 | COc1cc2ncnc(N3CC[C@@H](Oc4ccncc4)C3)c2cc1OC | 226 | 685 | – | 112 | – | – | – | –
12 | COc1cc2ncnc(N3CC[C@H](Oc4ccccc4OC)C3)c2cc1OC | > 100 | > 100 | – | 641 | – | – | – | –
13 | COc1ccc(Cc2nccc3cc(OC)c(OC)cc23)cc1OC [PAPAVERINE] | – | – | – | 17 | – | – | – | –
14 | COc1cc2ncnc(N3CC[C@@H](Oc4cccc(-c5ccccc5)c4)C3)c2cc1OC | 271 | 280 | – | 136 | – | – | – | –
15 | COc1cc2ncnc(N3CC[C@@H](Oc4cccc(C(C)C)c4)C3)c2cc1OC | 370 | 474 | – | 171 | – | – | – | –

Further lines, with some results ahead:

Row | Ki [2] [nM] | Ki [3] [nM] | IC50 [1] [nM] | Compound | Ki [1] [nM] | Activity [4] | Activity [5] | Activity [6] | Activity [7]
16 | 121 | 260 | – | COc1ccc(O[C@@H]2CCN(c3ncnc4cc(OC)c(OC)cc34)C2)cc1OC | 67 | – | – | – | –
17 | 151 | 196 | – | COc1cc2ncnc(N3CC[C@@H](Oc4cc5ccccc5cn4)C3)c2cc1OC | 19 | – | – | – | –
18 | 61 | 88 | – | CCOc1cccc(O[C@@H]2CCN(c3ncnc4cc(OC)c(OC)cc34)C2)c1 | 94 | – | – | – | –
19 | 162 | 332 | – | COc1cc2ncnc(N3CC[C@@H](Oc4ncc(Cl)cn4)C3)c2cc1OC | 44 | – | – | – | –
20 | 48 | 56 | – | COc1cc2ncnc(N3CC[C@@H](Oc4cccc5ccccc45)C3)c2cc1OC | 210 | – | – | – | –
21 | 104 | 201 | – | COc1cc2ncnc(N3CC[C@@H](Oc4ccc5ncccc5c4)C3)c2cc1OC | 12 | – | – | – | –
22 | < 100 | < 100 | – | COc1cc2ncnc(N3CC[C@@H](Oc4ccccc4Cl)C3)c2cc1OC | 198 | – | – | – | –
23 | 141 | 237 | – | COc1cc2ncnc(N3CC[C@@H](Oc4ccc5c(c4)CCC5)C3)c2cc1OC | 68 | – | – | – | –
24 | 77 | 207 | – | COc1cc2ncnc(N3CC[C@@H](Oc4ccccn4)C3)c2cc1OC | 123 | – | – | – | –
25 | 152 | 223 | – | COc1cc2ncnc(N3CC[C@@H](Oc4ccc5nc(C)ccc5c4)C3)c2cc1OC | 18 | – | – | – | –
26 | < 100 | < 100 | – | COc1cc2ncnc(N3CC[C@@H](Oc4ccccc4C)C3)c2cc1OC | 326 | – | – | – | –
27 | < 100 | < 100 | – | COc1cc2ncnc(N3CC[C@@H](Oc4ccccc4C#N)C3)c2cc1OC | 130 | – | – | – | –
28 | < 100 | > 100 | – | COc1cc2ncnc(N3CC[C@@H](Oc4ccccc4OC)C3)c2cc1OC | 240 | – | – | – | –
29 | < 100 | > 100 | – | COc1cc2ncnc(N3CC[C@@H](Oc4ccccc4C(F)(F)F)C3)c2cc1OC | 811 | – | – | – | –
30 | 161 | 328 | – | CCOc1ccc(O[C@@H]2CCN(c3ncnc4cc(OC)c(OC)cc34)C2)cc1 | 54 | – | – | – | –
